Source: publication PMC6445166, “Subnanomolar indazole-5-carboxamide inhibitors of monoamine oxidase B (MAO-B) continued: indications of iron binding, experimental evidence for optimised solubility and brain penetration” (Journal of Enzyme Inhibition and Medicinal Chemistry, 2017)
Where “and” joins values, the source holds several entries; their conditions need not be identical. Equal entries are not always repeated. Where two headings read alike, the source gives them in different places.

How the values were obtained:
[1] = target: T1, hMAO-B (Homo sapiens, UniProt P27338); conditions: at IC80: NTZ compounds 1.0 nM, selegiline 30 nM, safinamide 50 nM; p-tyramine raised to 1.0 mM after 22 min
T1 sequence (P27338 1-520): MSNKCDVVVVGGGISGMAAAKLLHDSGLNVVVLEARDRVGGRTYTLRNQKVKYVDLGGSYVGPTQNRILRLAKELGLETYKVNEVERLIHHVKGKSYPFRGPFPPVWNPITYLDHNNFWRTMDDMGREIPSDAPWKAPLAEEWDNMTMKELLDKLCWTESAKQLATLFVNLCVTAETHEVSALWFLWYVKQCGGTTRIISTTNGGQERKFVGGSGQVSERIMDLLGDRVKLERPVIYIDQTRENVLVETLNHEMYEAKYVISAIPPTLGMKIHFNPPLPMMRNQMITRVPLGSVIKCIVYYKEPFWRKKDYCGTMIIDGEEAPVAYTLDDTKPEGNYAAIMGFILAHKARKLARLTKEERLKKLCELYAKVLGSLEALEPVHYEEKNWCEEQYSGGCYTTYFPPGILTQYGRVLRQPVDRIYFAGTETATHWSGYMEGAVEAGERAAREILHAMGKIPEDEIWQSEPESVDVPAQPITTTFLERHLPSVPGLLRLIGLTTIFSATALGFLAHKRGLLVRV

[2] = target: T2, human recombinant MAO-A (Homo sapiens, UniProt P21397); assay type: biochemical
T2 construct: purchased Sigma-Aldrich M7316; host or cells: baculovirus-infected BTI-TN-5B1-4 insect cells (microsomes)
T2 sequence (P21397 1-527): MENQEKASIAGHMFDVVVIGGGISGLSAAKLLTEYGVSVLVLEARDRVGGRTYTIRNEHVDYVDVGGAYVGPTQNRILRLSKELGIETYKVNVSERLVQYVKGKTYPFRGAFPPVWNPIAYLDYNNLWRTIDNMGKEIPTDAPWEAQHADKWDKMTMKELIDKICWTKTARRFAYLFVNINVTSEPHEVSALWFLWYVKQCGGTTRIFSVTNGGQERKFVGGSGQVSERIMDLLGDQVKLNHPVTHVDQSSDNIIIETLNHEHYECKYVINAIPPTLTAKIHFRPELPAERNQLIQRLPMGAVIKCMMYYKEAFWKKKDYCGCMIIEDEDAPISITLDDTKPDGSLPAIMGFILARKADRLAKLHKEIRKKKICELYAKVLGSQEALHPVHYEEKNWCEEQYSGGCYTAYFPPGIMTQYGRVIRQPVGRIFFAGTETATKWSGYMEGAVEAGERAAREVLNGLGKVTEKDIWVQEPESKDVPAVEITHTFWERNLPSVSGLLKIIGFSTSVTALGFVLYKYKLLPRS

[3] = Chemical stability in phosphate buffer; assay type: physicochemical; conditions: chemical stability in 10 mM phosphate buffer at pH 7.4; 60 days at room temperature
Method: The purity and solubility of the compounds was determined by an analytical HPLC-UV method using an LC-MS instrument (Applied Biosystems API 2000 LC/ESI-MS; HPLC Agilent 1100 binary pump system) coupled with a diode array detector (DAD) with an UV absorption in the range from 220 to 400 nm. Mass spectra were recorded on an API 2000 mass spectrometer equipped with an electrospray ion source (ESI) by using triple ion quadrupole (TIC) with an alternating full scan detection in positive (+Q) and/or negative (-Q) mode. As mobile phases for the different analytical LC methods were used methanol (Sigma-Aldrich, Chromasolv LC-MS grade), ammonium acetate (2.0 mM) and water Purelab flex.
500 µL of a 10 mM compound stock solution in DMSO, ACN or MeOH was added to a 2.0 mL HPLC glass vial containing 500 µL phosphate buffer (10 mM, pH 7.4) and sonicated for 60 sec. The sample was shaken at 37 °C for 2 hours and then left for 60 days at room temperature under light exposure. The chemical stability of compounds was checked by UV-visible spectroscopy (Figure S1).

[4] = Octanol-water distribution coefficient (logD); conditions: for logD7.4: measured, pH 7.4 in 60 mM phosphate buffer at rt
[5] = Solubility studies (HPLC-UV/ESI-MS; kinetic solubility); assay type: physicochemical; conditions: measured, solubility in mol/L at pH 7.4 in 60 mM phosphate buffer or pure water at rt; for solubility: 60 mM phosphate buffer or pure water, pH 7.4, aqueous buffer, read-out: logS7.4
[6] = as above; assay type: physicochemical; conditions: thermodynamic from solid
Method: Solid […]
samples of compounds (2–4 mg) were weighed and serial diluted in 1.0 mL either of water (Purelab flex) or water-methanol (1:1). A precisely weighed sample of the respective compound in methanol (1.0 ± 0.05 mg/mL) was used as a reference. A blank solution without detectable analyte was used for instrument calibration for each experiment. The suspensions were mixed on a vortex for 5 min, sonicated for 1 h, and then shaken over night at rt. After that, the samples were left for 1 h at rt and then filtered through a 0.45 µm filter. Aliquots (10 µL) of each sample were injected into the HPLC/ESI-MS system (Applied
(1 picture or pasted object on this page, not shown here)
Biosystems API 2000 ESI-MS, HPLC Agilent 1100 binary pump system) equipped with a Phenomenex Luna C18 reverse phase column and subsequently measured by chromatographic procedure (DAD detection) with mass conformation (MS scan in positive and negative mode). The mass scan method was adapted for each tested compound depending on its limit of detection (LOD) and physicochemical properties (Table S1, Figure S2). The solubility of the compounds was calculated by Analyst software v.
1.5.1 (AB Sciex Pte. Ltd.) using one point calibration after subtraction the absorbance of the blank solution from the total analyte peak area measured for each sample in the experiments. To verify the results, an equimolar mixture (each in a concentration equal to 1.0 mg/mL) of the compounds in methanol was prepared and measured under the same conditions as described above (see Figure 4A). All experiments were performed in triplicate with at least three analytical runs for each sample.
The solubility data for tested compounds, obtained from the different analytical techniques, are […]
Table S1. Solubility data for selected compounds.
Compd. Methoda Solubility in 50% methanolb Solubility in waterb […]
a Method of detection: HPLC-UV method 1 (DAD), HPLC/ESI-MS method 2 (+Q/–Q scan: +MI+H+/– MI–H–). b The values are the mean ± SD (n ≥ 3).

[7] = PAMPA-BBB permeability assay; conditions: for PAMPA-BBB −logPe: 4 h under stirring, Prisma HT buffer; for CNS+/– Prediction: from PAMPA-BBB permeability, limit for BBB permeation Pe > 4.0 × 10^−6 cm/s
[8] = target: T1, hMAO-B; assay: MAO-B kinetic experiments (Lineweaver-Burk); assay type: biochemical; design: purchased Sigma-Aldrich M7441; host or cells: baculovirus-infected BTI-TN-5B1-4 insect cells (microsomes); conditions: 0.5 and 1.0 nM inhibitor, varied p-tyramine
[9] = PAMPA-BBB standard drugs; cited from earlier work
[10] = PAMPA
[11] = pure water (Purelab flex), water, method 1: HPLC-UV (DAD), read-out: Solubility in water Sw
[12] = pure water (Purelab flex), water, method 1: HPLC-UV (DAD), read-out: Solubility in water logSw
[13] = pure water (Purelab flex), water, method 2: HPLC/ESI-MS, read-out: Solubility in water logSw
[14] = pure water (Purelab flex), water, pure water, mean ± SD (n ≥ 3), read-out: Solubility in water
[15] = water-methanol (1:1), aqueous with cosolvent or surfactant or cyclodextrin, mean ± SD (n ≥ 3), read-out: Solubility in 50% methanol
[16] = water-methanol (1:1), aqueous with cosolvent or surfactant or cyclodextrin, method 1: HPLC-UV (DAD), read-out: Solubility in 50% methanol S
[17] = water-methanol (1:1), aqueous with cosolvent or surfactant or cyclodextrin, method 1: HPLC-UV (DAD), read-out: Solubility in 50% methanol logS
[18] = water-methanol (1:1), aqueous with cosolvent or surfactant or cyclodextrin, method 2: HPLC/ESI-MS, read-out: Solubility in 50% methanol logS
[19] = pure water (Purelab flex), water, method 2: HPLC/ESI-MS, read-out: Solubility in water Sw
[20] = water-methanol (1:1), aqueous with cosolvent or surfactant or cyclodextrin, method 2: HPLC/ESI-MS, read-out: Solubility in 50% methanol S
[21] = PAMPA-BBB validation with standard drugs

Row | SMILES | mode of interaction with hMAO-B (reversible or irreversible) [1] | solubility [6, 11] | solubility [6, 12] [µM] | solubility [6, 13] [µM] | solubility [6, 14] | solubility [6, 15] | solubility [6, 16] | solubility [6, 17] [µM] | solubility [6, 18] [µM] | PAMPA-BBB −logPe [7] | Papp at 4 h, 10 µM ([7]; PAMPA, pH 7.4) [×10⁻⁶ cm/s] | Stability [3] | logS7.4 [5] | Reported –logPe [9] | further results
1 | O=C(Nc1ccc(Cl)c(Cl)c1)c1ccc2[nH]ncc2c1 [NTZ-1006] | reversible inhibitors of hMAO-B |  |  |  |  |  |  |  |  |  |  | Stable |  |  | IC50 [2]: > 10 µM
2 | O=C(Nc1ccc(F)c(Cl)c1)c1ccc2[nH]ncc2c1 [NTZ-1032] |  |  |  |  |  |  |  |  |  |  |  | Stable |  |  | 
3 | O=C(Nc1ccc(F)c(F)c1)c1ccc2[nH]ncc2c1 [NTZ-1034] |  |  |  |  |  |  |  |  |  |  |  | Stable | −4.22 |  | logD7.4 [4]: 2.04
4 | Cn1ncc2cc(C(=O)Nc3ccc(F)c(Cl)c3)ccc21 [NTZ-1441] |  | 10.6 µg/mL and 34.9 µM | 34.7 | 135 | 42.1 µg/mL and 136 µM | 609 µg/mL and 2040 µM | 663 µg/mL and 2190 µM | 2190 | 2040 | 3.84 | 144 ± 3.4 | Stable | −3.87 |  | solubility [6, 19]: 136 ± 5.16 µM; solubility [6, 20]: 609 ± 48.7 µg/mL; logD7.4 [4]: 2.19; logD ([4]; octanol/water, pH 7.4): < 3; solubility [5]: > 100 µM
5 | CC(=O)[C@H]1CC[C@H]2[C@@H]3CCC4=CC(=O)CC[C@]4(C)[C@H]3CC[C@]12C [Progesterone, reference compound] |  |  |  |  |  |  |  |  |  |  |  |  |  | 3.7 ± 0.25 | Papp at 4 h ([7]; PAMPA, pH 7.4): 55.2 ± 0.02 ×10⁻⁶ cm/s; Experiment –logPe [7, 21]: 4.26 ± 0.00; CNS+/– Prediction [7]: CNS+
6 | CC(C)NCC(O)COc1cccc2ccccc12.Cl (stereo not shown) [Propranolol HCl, reference compound] |  |  |  |  |  |  |  |  |  |  |  |  |  | 4.1 ± 0.25 | Experiment Pe [7, 21]: 98.7 ± 9.96 10-6 cm/s; Experiment –logPe [7, 21]: 4.01 ± 0.04; CNS+/– Prediction [10]: CNS+
7 | C[C@H](NCc1ccc(OCc2cccc(F)c2)cc1)C(N)=O [Safinamide, reference compound] | reversible |  |  |  |  |  |  |  |  |  |  |  |  |  | 
8 | Cn1c(=O)c2[nH]cnc2n(C)c1=O [Theophylline] |  |  |  |  |  |  |  |  |  |  |  |  |  | > 6.0 ± 0.25 | 

Further lines, with some results ahead:

Row | mode of interaction with hMAO-B (reversible or irreversible) [1] | solubility [6, 11] | solubility [6, 12] [µM] | solubility [6, 13] [µM] | solubility [6, 14] | solubility [6, 15] | solubility [6, 16] | solubility [6, 17] [µM] | solubility [6, 18] [µM] | PAMPA-BBB −logPe [7] | Papp at 4 h, 10 µM ([7]; PAMPA, pH 7.4) [×10⁻⁶ cm/s] | SMILES | Stability [3] | logS7.4 [5] | Reported –logPe [9] | further results
9 | reversible inhibitors of hMAO-B | 0.75 µg/mL and 2.36 µM | 2.34 | 17.8 | 5.62 µg/mL and 17.6 µM | 156 µg/mL and 490 µM | 105 µg/mL and 300 µM | 331 | 447 | 3.91 | 118 ± 6.4 | Cn1ncc2cc(C(=O)Nc3ccc(Cl)c(Cl)c3)ccc21 [NTZ-1091] | Stable | −4.75 |  | type of hMAO-B inhibition (Lineweaver–Burk) [8]: linear and intersected at the Y-axis
10 |  | 10.4 µg/mL and 36.3 µM | 38.9 | 214 | 61.6 µg/mL and 215 µM | 610 µg/mL and 2120 µM | 631 µg/mL and 2180 µM | 2190 | 2140 | 3.83 | 148 ± 2.4 | Cn1ncc2cc(C(=O)Nc3ccc(F)c(F)c3)ccc21 [NTZ-1471] | Stable | −3.67 |  | solubility [6, 19]: 214 ± 33.3 µM; solubility [6, 20]: 610 ± 26.2 µg/mL; CNS+/– Prediction [7]: CNS+; solubility [5]: > 100 µM
